How the values were obtained:
[1] = system: Vero cell cultures; experiment: Cytotoxicity in Vero cell cultures; type: cell-based; conditions: Vero cells; values given as fractions, footnote a not given
Description: (§1) In the following is reported the results from a Vero cell culture infected with different viruses. The cell culture used as well as the methods applied are well known to a person skilled in the art.

[2] = system: Coxsackie virus B4; experiment: Antiviral activity in Vero cell cultures; type: cell-based; conditions: Vero cells; values given as fractions
Method: (§2) IC50 values are determined by the virus plaque formation and/or the virus cytopathic assay using standard methods well-known in the art.
as §1

[3] = system: Parainfluenza-3 Virus; experiment: Antiviral activity in Vero cell cultures; type: cell-based; conditions: Vero cells; values given as fractions
Method: as §2, §1

[4] = system: Reovirus-1; experiment: Antiviral activity in Vero cell cultures; type: cell-based; conditions: Vero cells; values given as fractions
Method: as §2, §1

[5] = system: Simliki forest virus; experiment: Antiviral activity in Vero cell cultures; type: cell-based; conditions: Vero cells; values given as fractions
Method: as §2, §1

[6] = system: Sindbis virus; experiment: Antiviral activity in Vero cell cultures; type: cell-based; conditions: Vero cells; values given as fractions
Method: as §2, §1

[7] = system: cytomegalovirus AD-169 strain; experiment: Activity against cytomegalovirus in HEL cells (plaque formation); type: cell-based; conditions: virus plaque formation reduced by 50%, 100 PFU, values given as fractions
Method: as §2

[8] = system: cytomegalovirus Davis strain; experiment: as above; type: cell-based; conditions: virus plaque formation reduced by 50%, 100 PFU, values given as fractions
Method: as §2

[9] = system: human embryonic lung (HEL) cells; experiment: Cytotoxicity in human embryonic lung (HEL) cells; type: cell-based; conditions: HEL cell growth reduced by 50%; values given as fractions
[10] = biological target: T1, Helicobacter pylori fumarate reductase (Helicobacter pylori, UniProt O06913); type: biochemical; conditions: at concentration of 0.2 mM
T1 construct: Membrane associated proteins were solubilized from the pellet in 150 mM KCl, pH 7.0; endogenous in cells; host or cells: Helicobacter pylori 007 strain; KCl-solubilised fraction (or sonicate supernatant)
T1 sequence (O06913 1-714): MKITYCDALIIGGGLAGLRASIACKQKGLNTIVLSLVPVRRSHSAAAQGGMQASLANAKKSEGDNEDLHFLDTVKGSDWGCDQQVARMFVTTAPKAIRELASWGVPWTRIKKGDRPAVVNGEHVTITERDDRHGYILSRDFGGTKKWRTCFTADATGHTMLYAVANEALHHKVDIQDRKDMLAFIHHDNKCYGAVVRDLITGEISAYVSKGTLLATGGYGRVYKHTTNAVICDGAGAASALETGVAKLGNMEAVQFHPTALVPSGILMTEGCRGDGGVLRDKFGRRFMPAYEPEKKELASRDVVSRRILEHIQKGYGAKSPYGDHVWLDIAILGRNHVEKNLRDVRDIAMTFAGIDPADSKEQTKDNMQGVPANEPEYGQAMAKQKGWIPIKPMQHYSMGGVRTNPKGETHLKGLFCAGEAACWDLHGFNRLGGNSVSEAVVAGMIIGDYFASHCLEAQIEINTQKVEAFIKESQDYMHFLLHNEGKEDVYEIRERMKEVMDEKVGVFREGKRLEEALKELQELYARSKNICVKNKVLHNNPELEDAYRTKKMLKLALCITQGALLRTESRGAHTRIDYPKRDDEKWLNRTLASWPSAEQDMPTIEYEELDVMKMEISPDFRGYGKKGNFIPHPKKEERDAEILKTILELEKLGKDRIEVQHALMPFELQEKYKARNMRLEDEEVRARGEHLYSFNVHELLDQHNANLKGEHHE
T1 sequence (O06914 1-245 partner): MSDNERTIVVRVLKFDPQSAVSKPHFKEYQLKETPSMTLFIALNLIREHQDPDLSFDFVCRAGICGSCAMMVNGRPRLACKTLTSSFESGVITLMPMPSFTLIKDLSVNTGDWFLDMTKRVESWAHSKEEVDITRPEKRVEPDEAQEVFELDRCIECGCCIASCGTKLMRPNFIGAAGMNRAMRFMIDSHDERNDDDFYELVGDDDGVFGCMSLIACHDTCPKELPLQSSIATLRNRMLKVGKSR
T1 sequence (O06912 1-255 partner): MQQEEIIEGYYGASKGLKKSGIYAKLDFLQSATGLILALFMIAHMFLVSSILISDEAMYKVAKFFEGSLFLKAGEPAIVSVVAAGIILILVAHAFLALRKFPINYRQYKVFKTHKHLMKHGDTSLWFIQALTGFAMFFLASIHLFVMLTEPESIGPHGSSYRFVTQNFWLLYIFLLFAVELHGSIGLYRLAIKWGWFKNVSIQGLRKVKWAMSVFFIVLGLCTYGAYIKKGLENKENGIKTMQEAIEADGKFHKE
Method: 1) Extraction of soluble FRD: Bacteria were harvested by centrifugation at 18,000 g for 10 min at 4° C., and were washed 2 times in an isotonic phosphate saline buffer (50 mM sodium phosphate, pH 7.2, 90 mM NaCl, 5 mM Kcl). Bacteria were lysed in 5 mM Tris-HCl, pH 7.4, for 15 minutes, and centrifuged 18,000 g for 10 minutes. Membrane associated proteins were solubilized from the pellet in 150 mM KCl, pH 7.0, in ice bath for 60 min, and then the supernatant was collected after centrifugation (18,000 g for 10 minutes) for the measurement of FRD activity.
2) Extraction of FRD by sonication: Bacteria were harvested by centrifugation at 18,000 g for 10 min at 4° C., were sonicated, and then the supernatant was collected after centrifugation (18,000 g for 10 minutes) for the measurement of FRD activity.
NADH-FRD activity was determined as the rate of NADH-oxidation upon addition of 1 mM fumarate in the KCl-solubilized fraction or sonicated fraction. The reaction was monitored spectrophotometrically at 340 nm (∈=6.2 mM^−1 cm^−1) using 100 μM NADH and usually 3 mg protein in both reference and sample cuvettes. The measurement was carried out in a Shimadzu UV-190 double-beam spectrophotometer. Protein concentrations were determined using a Bio-Rad protein assay (Bio-Rad Laboratories, 200 Alfred Nobel Dr. Hercules, Calif. 94547, USA).
KCl solubilised fraction of bacteria was incubated with different concentrations of various oxygenated chalcones at 28° C. and the remaining FRD activity was measured. The IC50 values were determined as the concentration at which 50% of the activity was inhibited.

[11] = Preliminary 14 days oral toxicity study in rats; type: in vivo; conditions: highest dose level 1000 mg/kg/day
Method: A preliminary 14 days oral toxicity study in rats was carried out with 6 compounds. Observations included clinical signs, body weights, food intake, haematology, clinical chemistry and macroscopic pathology.

Row | SMILES | Minimum Cytotoxic Concentration [1] | Minimum inhibitory concentration, Coxsackie virus B4 [2] | Minimum inhibitory concentration, Parainfluenza-3 Virus [3] | Minimum inhibitory concentration, Reovirus-1 [4] | Minimum inhibitory concentration, Simliki forest virus [5] | Minimum inhibitory concentration, Sindbis virus [6] | Antiviral activity IC50, AD-169 strain, Assay 1 [7] | Antiviral activity IC50, Davis strain, Assay 1 [8] | Cytotoxicity CC50 [9] | activity of NADH-fumarate reductase [10] | toxic effects [11]
1 | COc1ccc(/C=C/C(=O)c2ccccc2)c(OC)c1 [2,4mc] | <1/100 | <1/100 | <1/100 | <1/100 | <1/100 | <1/100 | <1/30 | 1/35 | <1/30 | – | –
2 | COc1ccc(/C=C/C(=O)c2ccccc2O)c(OC)c1 [2,4m2′hc] | <1/100 | <1/100 | <1/100 | <1/100 | <1/100 | <1/100 | <1/60 | <1/60 | <1/60 | – | –
3 | C=CCOc1ccc(C(=O)/C=C/c2cc(OC)c(OC)c(OC)c2)cc1 [3,4,5m4′ac] | <1/100 | 1/2000 | 1/2000 | <1/100 | 1/600 | 1/2000 | 1/150 | 1/85 | <1/60 | – | –
4 | COc1ccc(/C=C/C(=O)c2ccc(O)cc2)cc1OC [3,4m4′hc] | <1/100 | <1/100 | <1/100 | <1/100 | <1/100 | <1/100 | 1/45 | 1/55 | <1/30 | – | –
5 | C=CCOc1ccc(C(=O)/C=C/c2cc(OC)c(OC)cc2OC)cc1 [2,4,5m4′ac] | <1/100 | 1/600 | 1/2000 | <1/100 | 1/600 | 1/2000 | 1/60 | <1/30 | <1/30 | – | –
6 | COc1cccc(OC)c1/C=C/C(=O)c1ccc(O)cc1 [2,6m4′hc] | <1/100 | 1/600 | 1/600 | <1/100 | 1/600 | 1/2000 | 1/150 | 1/300 | 1/80 | – | –
7 | O=C(CC(=O)C(F)(F)F)c1cccs1 [2-thenoyltrifluoroacetone, reference compound] | – | – | – | – | – | – | – | – | – | almost completely inhibited | –
8 | C=CCOc1ccc(C(=O)/C=C/c2ccc(OC)cc2OC)cc1 [24m4′ac, 2,4-dimethoxy-4′allyloxychalcone] | – | – | – | – | – | – | – | – | – | – | No toxic effects
9 | C=CCOc1ccc(C(=O)/C=C/c2c(OC)cc(OC)cc2OC)cc1 [2,4,6m4′ac] | <1/100 | 1/600 | 1/2000 | <1/100 | 1/600 | 1/2000 | 1/200 | 1/120 | <1/30 | – | –
10 | C=CCOc1ccc(C(=O)/C=C/c2cc(OC)ccc2OC)cc1 [2,5m4′ac] | <1/100 | <1/100 | <1/100 | <1/100 | <1/100 | <1/100 | 1/35 | 1/55 | <1/30 | – | –
11 | C=CCOc1ccc(C(=O)/C=C/c2cccc(OC)c2OC)cc1 [2,3m4′ac] | <1/100 | <1/100 | <1/100 | <1/100 | <1/100 | <1/100 | <1/30 | <1/30 | <1/30 | – | –
